Experiment [1] has as its target T1, Papain (Carica papaya) (UniProt P00784).
T1 sequence (whole entry): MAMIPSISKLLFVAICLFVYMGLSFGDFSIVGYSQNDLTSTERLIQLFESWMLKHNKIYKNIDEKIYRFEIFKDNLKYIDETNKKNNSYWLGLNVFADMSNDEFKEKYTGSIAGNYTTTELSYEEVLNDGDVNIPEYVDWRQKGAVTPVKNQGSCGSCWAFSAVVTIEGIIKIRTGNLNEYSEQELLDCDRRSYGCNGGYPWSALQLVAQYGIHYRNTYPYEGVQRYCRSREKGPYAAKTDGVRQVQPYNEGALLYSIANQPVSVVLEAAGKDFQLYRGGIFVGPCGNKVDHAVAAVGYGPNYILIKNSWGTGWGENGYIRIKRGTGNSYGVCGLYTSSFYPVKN
Kind of experiment: Inhibition of papain at 50 uM.

The test system of a further experiment is Plasmodium falciparum. As to the kind of experiment: Inhibition of Plasmodium falciparum W2. The experiment is classed as functional, organism-based.
The target in the next experiment is T2, Falcipain 2 (Plasmodium falciparum, UniProt Q9N6S8).
T2 sequence (Q9N6S8 whole entry): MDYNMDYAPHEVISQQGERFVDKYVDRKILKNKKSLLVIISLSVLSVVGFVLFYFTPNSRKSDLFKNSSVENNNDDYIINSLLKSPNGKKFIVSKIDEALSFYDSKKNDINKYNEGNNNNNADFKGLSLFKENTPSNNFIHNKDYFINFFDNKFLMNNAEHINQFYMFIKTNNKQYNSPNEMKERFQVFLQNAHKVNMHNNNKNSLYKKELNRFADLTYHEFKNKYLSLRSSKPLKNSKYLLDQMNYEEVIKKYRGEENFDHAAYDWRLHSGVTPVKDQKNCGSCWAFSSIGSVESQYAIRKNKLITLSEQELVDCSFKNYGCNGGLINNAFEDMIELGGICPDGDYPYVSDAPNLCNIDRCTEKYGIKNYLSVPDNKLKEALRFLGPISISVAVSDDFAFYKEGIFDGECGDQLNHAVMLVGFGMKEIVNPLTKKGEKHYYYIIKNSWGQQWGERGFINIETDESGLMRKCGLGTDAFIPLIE
As to the kind of experiment: Inhibition of recombinant falcipain2.

The target of experiment [2] is T1, Papain (Carica papaya). As to the kind of experiment: Inhibition of papain upto 50 uM after 30 min.

Molecules are shown by their SMILES. Calls of active or inactive are those of the source. The rule behind the calls is not given here.

The IC50 is the concentration that inhibits the measured activity by half. As to `CC(C)C[C@H](NC(=O)N1CCOCC1)C(=O)N[C@H](/C=C1/CCCN(Cc2ccccc2)S1(=O)=O)Cc1ccccc1`, the inhibition result on Papain (Carica papaya) [1] is “inactive”. The IC50 is more than 10 µM with Plasmodium falciparum and 23.6 µM at Falcipain 2.
Turning to `CC(=O)N[C@@H](Cc1ccccc1)C(=O)N[C@H](/C=C1\CCCN(c2ccccc2)S1(=O)=O)Cc1ccccc1`, at Papain (Carica papaya) [2], the inhibition entry was “inactive”. For the same compound, the IC50 is more than 10 µM in the experiment on Plasmodium falciparum and 26.5 µM at Falcipain 2.
Turning to `CC(C)C[C@H](NC(=O)N1CCOCC1)C(=O)N[C@H](/C=C1\CCCN(Cc2ccccc2)S1(=O)=O)Cc1ccccc1`, on Papain (Carica papaya) [1], the inhibition entry was “inactive”. Moreover, the IC50 with Plasmodium falciparum was 7.8 µM; at Falcipain 2 it was 13.7 µM.
Regarding `CC(C)(C)OC(=O)N[C@H](/C=C1\CCCN(Cc2ccccc2)S1(=O)=O)Cc1ccccc1`, the inhibition result at Papain (Carica papaya) [1] is “inactive”.
Take `CC(C)C[C@H](NC(=O)N1CCOCC1)C(=O)N[C@H](/C=C1\CCN(Cc2ccccc2)S1(=O)=O)Cc1ccccc1`: the IC50 with Plasmodium falciparum was more than 10 µM; on Falcipain 2 it was 48.4 µM.
The matching figures for `CC(C)C[C@H](NC(=O)N1CCOCC1)C(=O)N[C@H](/C=C1\CCCN(c2ccccc2)S1(=O)=O)Cc1ccccc1`: more than 10 µM and 31.4 µM.

The record behind these values is ChEMBL document CHEMBL1146017, “Dipeptide vinyl sultams: synthesis via the Wittig-Horner reaction and activity against papain, falcipain-2 and Plasmodium falciparum” (Bioorg Med Chem Lett, 2006).
